Patent publication US20210177824A1, “EXTENDED RELEASE FORMULATIONS FOR INTRA-ARTICULAR APPLICATIONS” (NOVARTIS AG, priority 2017, published 2021)

Legend:
Assay type in all cases: physicochemical
[1] = Particle size and surface area of micronized Compound A micro-crystals
Description: Compound A can be micronized using any methods known to those skilled in the art. Un-milled Compound A is subjected to a size reduction process to obtain particle size. The size reduction of Compound A can be performed using any known methods such as by jet-milling technology, and more particularly, by spiral jet-milling technology, fluidized bed opposed jet-milling technology or loop jet-milling technology.
In yet other embodiments, Compound A was micronized to form micro-crystals with maximal particle diameters characterized in Table 1.

[2] = pKa of Compound A; conditions: weakly basic
Description: (§1) Compound A can be formulated as immediate release formulations for intra-articular injection. However, due to a high fluid exchange between the synovial fluid and the blood stream, immediate release formulations have a short synovial residence half-life and require frequent injections.

[3] = Aqueous solubility of Compound A as a function of pH
Description: as §1

## O=C(Nc1ccc(Cl)c(Cl)c1)[C@@H]1[C@@H](c2ccncc2)[C@@H]2CC[C@H]1O2 [Compound A, N-(3,4-dichlorophenyl)-3-(pyridin-4-yl)-7-oxabicyclo[2.2.1] heptane-2-carboxamide]
[1]
  Particle size: D10: ≤1.4 μm
  Particle size: D50: ≤6.1 μm
  Particle size: D90: ≤29.7 μm
  Surface area: 3 m^2/g
[2]
  pKa: 5.2
[3]
  pH dependence of solubility: Solubility increases with decreasing pH
[3]; neutral and basic pH
  Solubility in neutral pH and basic pH aqueous solutions: poorly soluble
